Experimental data reported in ChEMBL document CHEMBL1201862, “PubChem BioAssay data set” (2004).
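Results reflect a 48-hour exposure of cells in 96-well plates to compound at five concentrations. GI50 marks 50% less growth.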 The source made the active and inactive calls. No stated cut-off is given here; in the data, active = GI50 up to about 1.1 µM and inactive = higher.

Key:
Assay in all cases: NCI-60 cell line screen, 48 h
786-0 = tested on: 786-0
A549 = tested on: A549
BT-549 = tested on: BT-549
COLO 205 = tested on: COLO 205
K562 = tested on: K562
LOX IMVI = tested on: LOX IMVI
M14 = tested on: M14
MDA-MB-231 = tested on: MDA-MB-231
MDA-MB-435 = tested on: MDA-MB-435
MOLT-4 = tested on: MOLT-4
NCI/ADR-RES = tested on: NCI/ADR-RES
OVCAR-3 = tested on: OVCAR-3
OVCAR-8 = tested on: OVCAR-8
SK-MEL-2 = tested on: SK-MEL-2
SK-MEL-5 = tested on: SK-MEL-5
TK-10 = tested on: TK-10
U-251 = tested on: U-251
UACC-257 = tested on: UACC-257
SNB-19 = tested on: SNB-19
MCF7 = tested on: MCF7

Row | Compound | GI50 (786-0) | GI50 (A549) | GI50 (BT-549) | GI50 (COLO 205) | GI50 (K562) | GI50 (LOX IMVI) | GI50 (M14) | GI50 (MDA-MB-231) | GI50 (MDA-MB-435) | GI50 (MOLT-4) | GI50 (NCI/ADR-RES) | GI50 (OVCAR-3) | GI50 (OVCAR-8) | GI50 (SK-MEL-2) | GI50 (SK-MEL-5) | GI50 (TK-10) | GI50 (U-251) | GI50 (UACC-257) | GI50 (SNB-19) | GI50 (MCF7)
1 | Brc1ccc2c(c1)C1=C(CO2)Cc2ccccc2O1 | 22.7 µM (inactive) | 21.6 µM (inactive) | 18.2 µM (inactive) | 17.4 µM (inactive) | 16.2 µM (inactive) | 17.4 µM (inactive) | 19.3 µM (inactive) | 16.4 µM (inactive) | 16.9 µM (inactive) | 20 µM (inactive) | 23 µM (inactive) | 16.2 µM (inactive) | 20.7 µM (inactive) | 17.7 µM (inactive) | 15 µM (inactive) | 20.4 µM (inactive) | 19.1 µM (inactive) | 17.9 µM (inactive) | – | –
2 | COC(=O)c1c(C)cccc1CC1Cc2c(C)cccc2C1=O (stereo not given) | 32.4 µM (inactive) | 28.4 µM (inactive) | 35.9 µM (inactive) | 21.2 µM (inactive) | 29.6 µM (inactive) | 12 µM (inactive) | 31.5 µM (inactive) | 32.4 µM (inactive) | 21.7 µM (inactive) | 24.4 µM (inactive) | 19.9 µM (inactive) | 24.1 µM (inactive) | 48.3 µM (inactive) | 18.7 µM (inactive) | 20.7 µM (inactive) | 35.2 µM (inactive) | 40 µM (inactive) | 27.8 µM (inactive) | 48.3 µM (inactive) | –
3 | O=C(O)CNS(=O)(=O)c1ccc(NC(=O)c2cccc([N+](=O)[O-])c2)cc1 | > 100 µM (inactive) | > 100 µM (inactive) | – | > 100 µM (inactive) | > 100 µM (inactive) | > 100 µM (inactive) | > 100 µM (inactive) | – | – | > 100 µM (inactive) | – | > 100 µM (inactive) | > 100 µM (inactive) | > 100 µM (inactive) | > 100 µM (inactive) | > 100 µM (inactive) | > 100 µM (inactive) | > 100 µM (inactive) | > 100 µM (inactive) | –
4 | CSc1nc(C)cc(Nc2ccc(O)c(CN3CCCCC3)c2)n1 | 23.1 µM (inactive) | > 100 µM (inactive) | > 100 µM (inactive) | 29 µM (inactive) | 30.6 µM (inactive) | 33 µM (inactive) | 16.3 µM (inactive) | – | 57.5 µM (inactive) | 57.7 µM (inactive) | > 100 µM (inactive) | > 100 µM (inactive) | > 100 µM (inactive) | – | 25.3 µM (inactive) | – | – | – | > 100 µM (inactive) | 67.6 µM (inactive)
5 | CNC(=O)N1CN(c2ccccc2)C2(CCN(Cc3ccccc3)CC2)C1=O | > 100 µM (inactive) | > 100 µM (inactive) | – | 35.6 µM (inactive) | 31.8 µM (inactive) | 50.5 µM (inactive) | > 100 µM (inactive) | 19.5 µM (inactive) | – | 14.2 µM (inactive) | 12.2 µM (inactive) | > 100 µM (inactive) | > 100 µM (inactive) | – | 56.1 µM (inactive) | 62.5 µM (inactive) | > 100 µM (inactive) | > 100 µM (inactive) | > 100 µM (inactive) | 8.93 µM (inactive)
6 | Cc1ccc(C)c(N2C(=O)C(=O)C(c3nc4ccccc4s3)/C(=N\c3cccc4c(=O)[nH][nH]c(=O)c34)C2=O)c1 (stereo not given) | > 100 µM (inactive) | > 100 µM (inactive) | – | 38.2 µM (inactive) | > 100 µM (inactive) | > 100 µM (inactive) | > 100 µM (inactive) | – | – | > 100 µM (inactive) | – | > 100 µM (inactive) | > 100 µM (inactive) | > 100 µM (inactive) | > 100 µM (inactive) | > 100 µM (inactive) | > 100 µM (inactive) | > 100 µM (inactive) | > 100 µM (inactive) | –
7 | C=C(CCCCC)CN1CCCC1[C@@](C)(O)CC(=O)OCC (stereo not given in full) | > 100 µM (inactive) | > 100 µM (inactive) | – | > 100 µM (inactive) | > 100 µM (inactive) | > 100 µM (inactive) | > 100 µM (inactive) | – | – | 90.2 µM (inactive) | – | > 100 µM (inactive) | > 100 µM (inactive) | > 100 µM (inactive) | > 100 µM (inactive) | > 100 µM (inactive) | > 100 µM (inactive) | > 100 µM (inactive) | > 100 µM (inactive) | –
8 | CCOC(CCCN1CCC2(CC1)C(=O)N(C)CN2c1ccccc1)(OCC)c1ccc(F)cc1 | 14.6 µM (inactive) | 8.65 µM (inactive) | – | 2.52 µM (inactive) | 14 µM (inactive) | 16.1 µM (inactive) | 10.7 µM (inactive) | 14.2 µM (inactive) | – | 7.11 µM (inactive) | 13.7 µM (inactive) | 13.6 µM (inactive) | 15.4 µM (inactive) | – | 3.45 µM (inactive) | 7.66 µM (inactive) | 12.2 µM (inactive) | 6.14 µM (inactive) | 10.2 µM (inactive) | 3.8 µM (inactive)
9 | COc1cc(NCc2ccc3nc(OC)c(OC)nc3c2)cc(OC)c1OC | > 100 µM (inactive) | > 100 µM (inactive) | – | > 100 µM (inactive) | 97.3 µM (inactive) | > 100 µM (inactive) | > 100 µM (inactive) | > 100 µM (inactive) | > 100 µM (inactive) | > 100 µM (inactive) | 42.1 µM (inactive) | > 100 µM (inactive) | > 100 µM (inactive) | > 100 µM (inactive) | > 100 µM (inactive) | – | > 100 µM (inactive) | > 100 µM (inactive) | > 100 µM (inactive) | 69.5 µM (inactive)
10 | Cc1cc(CC(O)(C(F)(F)F)C(F)(F)F)cc(CC(O)(C(F)(F)F)C(F)(F)F)n1 | 2.29 µM (inactive) | 3.3 µM (inactive) | – | 1.87 µM (inactive) | 4.28 µM (inactive) | 2.42 µM (inactive) | 3.71 µM (inactive) | 3.23 µM (inactive) | 2.88 µM (inactive) | 3.24 µM (inactive) | 1.87 µM (inactive) | 1.01 µM (active) | 3.48 µM (inactive) | 2.44 µM (inactive) | 1.72 µM (inactive) | 4.7 µM (inactive) | 3.3 µM (inactive) | 2.89 µM (inactive) | > 100 µM (inactive) | –
11 | COc1ccc(/C(Br)=C2\OC(=O)c3ccccc32)cc1 | > 10 µM (inactive) | > 10 µM (inactive) | – | > 10 µM (inactive) | > 10 µM (inactive) | > 10 µM (inactive) | > 10 µM (inactive) | > 10 µM (inactive) | > 10 µM (inactive) | > 10 µM (inactive) | > 10 µM (inactive) | > 10 µM (inactive) | > 10 µM (inactive) | > 10 µM (inactive) | > 10 µM (inactive) | > 10 µM (inactive) | > 10 µM (inactive) | > 10 µM (inactive) | > 10 µM (inactive) | > 10 µM (inactive)
12 | COC(=O)c1cc(C)ccc1C1CN=NC12Cc1cccc(C)c1C2=O (stereo not given) | 56.6 µM (inactive) | 31.7 µM (inactive) | – | – | 33.3 µM (inactive) | 16.6 µM (inactive) | 16.7 µM (inactive) | 25.6 µM (inactive) | 26.3 µM (inactive) | 18.7 µM (inactive) | 25.5 µM (inactive) | 36.1 µM (inactive) | 33.1 µM (inactive) | – | 18 µM (inactive) | 71.6 µM (inactive) | 48.9 µM (inactive) | 30.9 µM (inactive) | 55.1 µM (inactive) | 30.1 µM (inactive)
13 | CCOC(=O)Cn1nnc2cc(Nc3nc4ccccc4nc3C(=O)OCC)ccc21 | 67 µM (inactive) | > 100 µM (inactive) | > 100 µM (inactive) | > 100 µM (inactive) | > 100 µM (inactive) | > 100 µM (inactive) | > 100 µM (inactive) | – | > 100 µM (inactive) | > 100 µM (inactive) | 64.9 µM (inactive) | > 100 µM (inactive) | 49.7 µM (inactive) | 78.2 µM (inactive) | > 100 µM (inactive) | 22.5 µM (inactive) | 36 µM (inactive) | > 100 µM (inactive) | 29 µM (inactive) | > 100 µM (inactive)
14 | CC(=O)/C=C1\Nc2ccc([N+](=O)[O-])cc2N\C1=C/C(C)=O | 58.1 µM (inactive) | 38.3 µM (inactive) | 31.9 µM (inactive) | 58.2 µM (inactive) | 50.8 µM (inactive) | 73.5 µM (inactive) | > 100 µM (inactive) | 92.5 µM (inactive) | 82.4 µM (inactive) | 21 µM (inactive) | 30 µM (inactive) | 31.1 µM (inactive) | 33.5 µM (inactive) | 29.2 µM (inactive) | 24.7 µM (inactive) | 65.5 µM (inactive) | 35.3 µM (inactive) | 21.9 µM (inactive) | 42.2 µM (inactive) | –
15 | Nc1nc(N)c(-c2ccc(Cl)cc2)c(CCC(=O)Nc2cccc(C(F)(F)F)c2)n1 | > 100 µM (inactive) | > 100 µM (inactive) | – | > 100 µM (inactive) | > 100 µM (inactive) | > 100 µM (inactive) | > 100 µM (inactive) | – | – | > 100 µM (inactive) | – | > 100 µM (inactive) | > 100 µM (inactive) | > 100 µM (inactive) | > 100 µM (inactive) | > 100 µM (inactive) | > 100 µM (inactive) | > 100 µM (inactive) | > 100 µM (inactive) | –
16 | CC(=O)c1ccc2c(c1)C(=O)c1sc(C(C)=O)cc1C2=O | 1.68 µM (inactive) | 2.59 µM (inactive) | – | 1.69 µM (inactive) | 1.7 µM (inactive) | 0.22 µM (active) | 0.91 µM (active) | 1.23 µM (inactive) | 1.18 µM (inactive) | 0.233 µM (active) | 0.906 µM (active) | 0.368 µM (active) | 0.695 µM (active) | 1.47 µM (inactive) | 0.389 µM (active) | 1.76 µM (inactive) | 1.56 µM (inactive) | 0.859 µM (active) | 0.748 µM (active) | 1.37 µM (inactive)
